Experimental data reported in patent US20060148858A1, “1, 2-Azole derivatives with hypoglycemic and hypolipidemic activity” (priority 2002, published 2006).

Tests used:
PPARδ-RXRα heterodimer = molecular target: T1, PPARδ-RXRα heterodimer (Homo sapiens, UniProt Q03181); assay: PPARδ-RXRα heterodimer ligand activity, luciferase reporter in COS-1 transformant (Test Example 4); assay type: cell-based; conditions: COS-1 transformant (hPPARδ, hRXRα, reporter), 36-48 hours, concentration for 50% of the maximum fold induction
T1 construct: expressed in transfected cells; host or cells: COS-1
T1 sequence (Q03181 1-441): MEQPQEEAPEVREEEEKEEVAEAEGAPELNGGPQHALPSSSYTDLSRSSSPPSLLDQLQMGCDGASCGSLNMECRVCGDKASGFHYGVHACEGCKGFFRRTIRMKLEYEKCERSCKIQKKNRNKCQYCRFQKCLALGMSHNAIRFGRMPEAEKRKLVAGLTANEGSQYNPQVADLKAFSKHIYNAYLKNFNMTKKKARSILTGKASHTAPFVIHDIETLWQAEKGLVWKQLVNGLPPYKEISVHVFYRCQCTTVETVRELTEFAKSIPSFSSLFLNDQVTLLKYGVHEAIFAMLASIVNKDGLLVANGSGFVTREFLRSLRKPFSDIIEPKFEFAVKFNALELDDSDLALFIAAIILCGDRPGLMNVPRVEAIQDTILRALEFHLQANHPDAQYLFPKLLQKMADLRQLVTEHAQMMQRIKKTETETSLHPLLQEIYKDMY
T1 sequence (P19793 1-462 partner): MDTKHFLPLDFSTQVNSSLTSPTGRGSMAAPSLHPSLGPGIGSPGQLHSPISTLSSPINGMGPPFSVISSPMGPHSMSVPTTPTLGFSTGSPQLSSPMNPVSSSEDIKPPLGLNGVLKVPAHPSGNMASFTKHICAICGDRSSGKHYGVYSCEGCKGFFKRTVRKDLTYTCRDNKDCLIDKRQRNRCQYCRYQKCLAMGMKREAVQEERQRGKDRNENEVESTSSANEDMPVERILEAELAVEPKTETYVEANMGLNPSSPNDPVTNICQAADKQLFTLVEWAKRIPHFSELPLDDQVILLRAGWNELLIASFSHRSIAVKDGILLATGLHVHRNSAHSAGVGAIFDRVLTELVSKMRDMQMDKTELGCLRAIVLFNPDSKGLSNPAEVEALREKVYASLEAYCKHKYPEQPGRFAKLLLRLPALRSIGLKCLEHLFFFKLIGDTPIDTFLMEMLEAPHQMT
Procedure: The transformant obtained in Reference Example 9a was suspended in DMEM medium (produced by Life Technologies, Inc., USA) containing 0.1% fatty acid-free bovine serum albumin (BSA) (produced by Wako Pure Chemical Industries, Ltd.), and inoculate to each well of a 96-well white plate (produced by Corning Costar Corporation, USA) by 80 μl at 1×10^4 cells/well. Then the test compound (20 μl) was added and cultured at 37° C. under 5% CO2 for 36-48 hours. After removing the medium from the 96-well white plate, 40 μl of PIKKAGENE LT 7.5 (produced by Wako Pure Chemical Industries, Ltd.) diluted twice with HBSS (HANKS' BALANCED SALT SOLUTION)(produced by BIO WHITTAKER Inc., USA), was added. After stirring, the luciferase activity was determined using 1420 ARVO Multilabel Counter (produced by PerkinElmer Inc., USA).
A fold induction was calculated based on the luciferase activity of each test compound by taking the luciferase activity in the non-treatment group as 1. The values of the test compound concentration and the fold induction were analyzed using PRISM (produced by GraphPad Software Inc. USA) to calculate the EC50 values, the effective concentration of a test compound for 50% of the maximum fold induction.
COS-1 cells were inoculated to a 150 cm^2 cell culture flask (produced by Corning Costar Corporation, USA) at the density of 5×10^6 cells/50 ml, and cultured at 37° C. under 5% CO2 conditions for 24 hours. Subsequently, a DNA was introduced into the cell under the condition shown below using Lipofectamine (produced by Invitrogen, USA).
First, Lipofectamine (125 μl), PLUS Reagent (100 μl, produced by Invitrogen, USA), plasmid pMCMVneo-hPPARδ (2.5 μg) obtained in Reference Example 3a, plasmid pMCMVneo-hRXRα (2.5 μg) obtained in Reference Example 4a and reporter plasmid pGL3-4ERPP-TK neo (5 μg) obtained in Reference Example 5a, and pRL-tk (5 μg, produced by Promega, USA) were mixed with opti-MEM (5 ml, produced by Invitrogen, USA) to give a transfection mixture.
Then, the above-mentioned transfection mixture and opti-MEM (20 ml) were added to COS-1 cells washed with opti-MEM, and the cells were cultured at 37° C. under 5% CO2 conditions for 3 hours. DMEM medium (25 ml, produced by Life Technologies, Inc., USA) containing 0.1% fatty acid-free bovine serum albumin (BSA) (produced by Wako Pure Chemical Industries, Ltd.) was added to the obtained COS-1 cells, and the cells were cultured at 37° C. under 5% CO2 conditions for 18-24 hours to give a transformant.

| Structure (SMILES) | melting point [°C] | EC50 (PPARδ-RXRα heterodimer) [nM] |
| --- | --- | --- |
| COc1cc(OCc2cn(-c3ccc(C(F)(F)F)cn3)nc2C)ccc1CCC(=O)O [Example 122, 3-[2-methoxy-4-({3-methyl-1-[5-(trifluoromethyl)-2-pyridyl]-1H-pyrazol-4-yl}methoxy)phenyl]propionic acid] | 158 to 159 | 4.9 |
| Cc1cc(OCc2cn(-c3ccc(C(F)(F)F)cn3)nc2C)ccc1CCC(=O)O [Example 123, 3-[2-methyl-4-({3-methyl-1-[5-(trifluoromethyl)-2-pyridyl]-1H-pyrazol-4-yl}methoxy)phenyl]propionic acid] | 144 to 145 | 2.9 |
| O=C(O)Cc1cccc(OCCCc2cn(-c3ccc(C(F)(F)F)cn3)nc2-c2ccccc2)c1 [Example 124, [3-(3-{3-phenyl-1-[5-(trifluoromethyl)-2-pyridyl]-1H-pyrazol-4-yl}propoxy)phenyl]acetic acid] | 132 to 133 | 2.4 |
| CCOc1cc(OCCCc2cn(-c3ccc(C(F)(F)F)cn3)nc2C)ccc1CCC(=O)O [Example 126, 3-[2-ethoxy-4-(3-{3-methyl-1-[5-(trifluoromethyl)-2-pyridyl]-1H-pyrazol-4-yl}propoxy)phenyl]propionic acid] | 129 to 130 | 2.2 |
| Cc1nn(-c2ccc(C(F)(F)F)cn2)cc1CCCOc1cccc(CC(=O)O)c1 [Example 127, [3-(3-{3-methyl-1-[5-(trifluoromethyl)-2-pyridyl]-1H-pyrazol-4-yl}propoxy)phenyl]acetic acid] | 96 to 97 | 3.9 |
| COc1cc(CCC(=O)O)ccc1OCCCc1cn(-c2ccc(C(F)(F)F)cn2)nc1C [Example 129, 3-[3-methoxy-4-(3-{3-methyl-1-[5-(trifluoromethyl)-2-pyridyl]-1H-pyrazol-4-yl}propoxy)phenyl]propionic acid] | 136 to 137 | 4.9 |
| CCOc1cc(OCCCc2cn(-c3ccc(C(F)(F)F)cn3)nc2OC(C)C)ccc1CCC(=O)O [Example 154, 3-[2-ethoxy-4-(3-{3-isopropoxy-1-[5-(trifluoromethyl)-2-pyridyl]-1H-pyrazol-4-yl}propoxy)phenyl]propanoic acid] | 128 to 129 | 1.5 |
| CCCCOc1nn(-c2ccc(C(F)(F)F)cn2)cc1CCCOc1ccc(CCC(=O)O)c(OCC)c1 [Example 155, 3-[4-(3-{3-butoxy-1-[5-(trifluoromethyl)-2-pyridyl]-1H-pyrazol-4-yl}propoxy)-2-ethoxyphenyl]propanoic acid] | 102 to 103 | 3.8 |
| CCCc1nn(-c2ccc(C(F)(F)F)cn2)cc1CCCOc1ccc(C(C)(C)C(=O)O)cc1 [Example 157, 2-methyl-2-[4-(3-{3-propyl-1-[5-(trifluoromethyl)-2-pyridyl]-1H-pyrazol-4-yl}propoxy)phenyl]propanoic acid] | 84 to 85 | 4.7 |
| CCCc1nn(-c2ccc(C(F)(F)F)cn2)cc1CCCOc1cc(CC(=O)O)cc(OC)c1 [Example 169, [3-methoxy-5-(3-{3-propyl-1-[5-(trifluoromethyl)-2-pyridyl]-1H-pyrazol-4-yl}propoxy)phenyl]acetic acid] | 139 to 140 | 5.7 |
| CCCc1cn(CC(=O)O)nc1OCCCc1cn(-c2ccc(C(F)(F)F)cn2)nc1OCC [Example 255, [3-(3-{3-ethoxy-1-[5-(trifluoromethyl)-2-pyridyl]-1H-pyrazol-4-yl}propoxy)-4-propyl-1H-pyrazol-1-yl]acetic acid] | 134 to 135 | 9.5 |

The remaining lines, values ahead:

| melting point [°C] | EC50 (PPARδ-RXRα heterodimer) [nM] | Structure (SMILES) |
| --- | --- | --- |
| 142 to 143 | 2.7 | CCOc1nn(-c2ccc(C(F)(F)F)cn2)cc1CCCOc1cc(CC(=O)O)ccc1OC [Example 131, [3-(3-{3-ethoxy-1-[5-(trifluoromethyl)-2-pyridyl]-1H-pyrazol-4-yl}propoxy)-4-methoxyphenyl]acetic acid] |
| 122 to 123 | 5.8 | CCOc1nn(-c2ccc(C(F)(F)F)cn2)cc1CCCOc1c(CC(=O)O)cccc1OC [Example 146, [2-(3-{3-ethoxy-1-[5-(trifluoromethyl)-2-pyridyl]-1H-pyrazol-4-yl}propoxy)-3-methoxyphenyl]acetic acid] |
| 131 to 132 | 2.7 | CCOc1nn(-c2ccc(C(F)(F)F)cn2)cc1CCCOc1ccc(CCC(=O)O)cc1OC [Example 150, 3-[4-(3-{3-ethoxy-1-[5-(trifluoromethyl)-2-pyridyl]-1H-pyrazol-4-yl}propoxy)-3-methoxyphenyl]propanoic acid] |
| 145 to 146 | 9.9 | CCOc1cc(OCCCc2cn(-c3ccc(C(F)(F)F)cn3)nc2OC)ccc1CCC(=O)O [Example 152, 3-[2-ethoxy-4-(3-{3-methoxy-1-[5-(trifluoromethyl)-2-pyridyl]-1H-pyrazol-4-yl}propoxy)phenyl]propanoic acid] |
| 112 to 113 | 1.9 | CCCOc1nn(-c2ccc(C(F)(F)F)cn2)cc1CCCOc1ccc(CCC(=O)O)c(OCC)c1 [Example 153, 3-[2-ethoxy-4-(3-{3-propoxy-1-[5-(trifluoromethyl)-2-pyridyl]-1H-pyrazol-4-yl}propoxy)phenyl]propanoic acid] |
| 125 to 126 | 1.6 | CCOc1nn(-c2ccc(C(F)(F)F)cn2)cc1CCCOc1cc(CC(=O)O)cc(OC)c1 [Example 168, [5-(3-{3-ethoxy-1-[5-(trifluoromethyl)-2-pyridyl]-1H-pyrazol-4-yl}propoxy)-3-methoxyphenyl]acetic acid] |
| 114 to 115 | 5.6 | CCOc1nn(-c2ccc(C(F)(F)F)cc2)cc1CCCOc1ccccc1CC(=O)O [Example 182, [2-(3-{3-ethoxy-1-[4-(trifluoromethyl)phenyl]-1H-pyrazol-4-yl}propoxy)phenyl]acetic acid] |
| 120 to 121 | 1.9 | CCOc1nn(-c2ccc(C(F)(F)F)cn2)cc1CCCOc1cccc(CC(=O)O)c1F [Example 186, [3-(3-{3-ethoxy-1-[5-(trifluoromethyl)-2-pyridyl]-1H-pyrazol-4-yl}propoxy)-2-fluorophenyl]acetic acid] |
| 116 to 117 | 5.9 | CCOc1ccc(CC(=O)O)cc1OCCCc1cn(-c2ccc(C(F)(F)F)cn2)nc1C(C)C [Example 200, [4-ethoxy-3-(3-{3-isopropyl-1-[5-(trifluoromethyl)-2-pyridyl]-1H-pyrazol-4-yl}propoxy)phenyl]acetic acid] |
| 124 to 125 | 4.6 | CCCc1nn(-c2ccc(C(F)(F)F)cn2)cc1CCCOc1cc(CC(=O)O)ccc1OCC [Example 204, [4-ethoxy-3-(3-{3-propyl-1-[5-(trifluoromethyl)-2-pyridyl]-1H-pyrazol-4-yl}propoxy)phenyl]acetic acid] |
